Results taken from patent publication US4704405A (priority 1986, dated 1987).

Tests used:
[1] = cited from earlier work; for bioavailability of the drug: tromethamine or sodium salts, British Pat. No. 2,059,768, German Pat. No. 134,672
[2] = in vivo

CC(=O)Oc1ccccc1C(=O)O [aspirin]
bioavailability of the drug [1]: enhanced bioavailability

COc1ccc2c(c1)c(CC(=O)O)c(C)n2C(=O)c1ccc(Cl)cc1 [indomethacin]
bioavailability of the drug [1]: enhanced bioavailability

CC1=C(CC(=O)O)c2cc(F)ccc2/C1=C\c1ccc([S+](C)[O-])cc1 (centres unmarked) [sodium sulindac]
absorption of sulindac [2]: Extremely rapid absorption

CC1=C(CC(=O)O)c2cc(F)ccc2C1=Cc1ccc([S+](C)[O-])cc1 (centres unmarked) [sulindac]
duration of action ([1]; NSAID, reduction-oxidation prodrug): long duration of action
onset of activity ([1]; sulindac, commercialized as CLINORIL): slow onset of activity
